How the values were obtained:
D3R [1] = details: read-out: D3R receptor binding affinities; cited from earlier work
D2R [2] = details: 6 compared to 5; cited from earlier work
D2R [3] = details: at concentrations over 50 μM; cited from earlier work
D3R [4] = molecular target: T1, D3R (Homo sapiens, UniProt P35462); details: Table 1; ratio of binding Ki values D2R/D3R
D2R long isoform = D2R long isoform (Homo sapiens, UniProt P14416); experiment: β-arrestin recruitment assay; format: cell-based; details: dopamine curve-shift / inhibition of dopamine stimulation
D3R [5] = molecular target: T1, D3R; experiment: β-arrestin recruitment assay; details: dopamine curve-shift assays, best fit by F-test

T1 sequence (P35462 whole entry, canonical isoform): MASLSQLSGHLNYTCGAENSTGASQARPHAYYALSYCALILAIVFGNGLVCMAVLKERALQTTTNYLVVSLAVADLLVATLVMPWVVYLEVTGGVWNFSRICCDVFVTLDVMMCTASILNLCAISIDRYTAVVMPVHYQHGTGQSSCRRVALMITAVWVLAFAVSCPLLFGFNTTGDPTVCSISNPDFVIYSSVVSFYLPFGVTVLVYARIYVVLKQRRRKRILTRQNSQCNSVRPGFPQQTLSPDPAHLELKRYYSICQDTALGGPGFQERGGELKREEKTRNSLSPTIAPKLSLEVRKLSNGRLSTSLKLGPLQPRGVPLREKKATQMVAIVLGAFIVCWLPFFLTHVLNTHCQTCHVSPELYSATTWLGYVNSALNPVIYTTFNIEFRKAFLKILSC
Sequence of D2R long isoform (P14416 whole entry, canonical isoform): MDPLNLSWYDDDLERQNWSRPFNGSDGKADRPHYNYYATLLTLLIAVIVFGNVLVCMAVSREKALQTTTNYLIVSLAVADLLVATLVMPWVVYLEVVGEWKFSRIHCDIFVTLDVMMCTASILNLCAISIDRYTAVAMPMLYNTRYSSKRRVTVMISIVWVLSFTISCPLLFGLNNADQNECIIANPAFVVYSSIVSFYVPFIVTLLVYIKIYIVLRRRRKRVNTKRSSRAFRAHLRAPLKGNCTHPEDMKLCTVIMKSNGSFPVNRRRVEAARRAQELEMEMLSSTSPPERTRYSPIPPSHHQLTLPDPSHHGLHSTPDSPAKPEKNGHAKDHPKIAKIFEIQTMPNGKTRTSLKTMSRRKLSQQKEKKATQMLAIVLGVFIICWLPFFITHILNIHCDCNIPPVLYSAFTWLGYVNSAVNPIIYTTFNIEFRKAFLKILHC

O=C(NC/C=C/CN1CCN(c2cccc(Cl)c2Cl)CC1)c1ccc(-c2ccccn2)cc1 [Compound 6]
Ki (D3R [1]): ~1 nM
lower affinity at D2R (D2R [2]): ~ 2 fold

CC(C)NC(=O)c1cc2ccccc2[nH]1 [Compound 13b]
mode of action at the D2R (D2R [3]): allosteric antagonist of the D2R with modest negative cooperativity with dopamine

N#Cc1ccc2c(c1)CNCC2 [Compound 9b, 7-cyano-1,2,3,4-tetrahydroisoquinoline]
D2/D3 (D3R [4]): 7.5–9.1

CCN1CCCC1CNC(=O)c1cc(S(N)(=O)=O)ccc1OC (stereo not shown) [sulpiride]
mechanism of antagonism at the D2R (D2R long isoform): competitive antagonist
mechanism of antagonism at the D3R (D3R [5]): competitive antagonist

N#Cc1cccc(N2CCNCC2)c1 [Compound 8, 3-(Piperazin-1-yl)benzonitrile]
D2/D3 (D3R [4]): 7.5–9.1

From article PMC5325712 (Journal of medicinal chemistry, 2017)
